Patent US20050282751A1, “Therapeutic agent for renal anemia” (Ajinomoto Co., Inc., priority 2004, published 2005)

How the values were obtained:
[1] = tested on: patients with renal anemia; conditions: conventional treatment with rHuEPO preparation; cited from earlier work
[2] = tested on: patients with renal anemia; test: Clinical test: hemoglobin in patients with renal anemia, oral Argi U granules; format: in vivo, human
Method: The administration period was at the longest 18 weeks. The amount of each of hemoglobin, BUN (blood urea nitrogen), Cre (creatinine), Fe and erythropoietin in blood was determined by methods described below.
Hemoglobin was determined with an automatic blood cell analysis device.
The hemoglobin concentration of each case determined before and after the administration of the amino acid preparation is shown in Table 2.
For typical three patients, a change in hemoglobin concentration was given as ΔHb value (amount of change of hemoglobin) calculated by deducting the hemoglobin concentration before the administration of the amino acid preparation from the hemoglobin concentration after the administration thereof in FIG. 1.

[3] = tested on: patients with renal anemia; test: Clinical test: side effects; format: in vivo, human
Method: 1.3 g of an amino acid preparation (trade name: Argi U granules, a product of Ajinomoto Pharma Co. Ltd.) (1.0 g of […] in conservative stage accompanying renal anemia, whose age, hemocytometric results and results of general biochemical tests are shown in Table 1). The administration period was at the longest 18 weeks. The amount of each of hemoglobin, BUN (blood urea nitrogen), Cre (creatinine), Fe and erythropoietin in blood was determined by methods described below.

[4] = tested on: patients with renal anemia; test: Clinical test: erythropoietin in blood, ELISA; format: in vivo, human
Description: (§1) 1.3 g of an amino acid preparation (trade name: Argi U granules, a product of Ajinomoto Pharma Co. Ltd.) (1.0 g of arginine) was orally administered in two portions everyday to each of 8 patients having an illness diagnosed as renal anemia (cases of chronic renal failure in conservative stage accompanying renal anemia, whose age, hemocytometric results and results of general biochemical tests are shown in Table 1). The administration period was at the longest 18 weeks. The amount of each of hemoglobin, BUN (blood urea nitrogen), Cre (creatinine), Fe and erythropoietin in blood was determined by methods described below.
Erythropoietin was determined by ELISA method.

[5] = tested on: patients with renal anemia; test: Clinical test: Cre (creatinine), enzymatic method; format: in vivo, human; conditions: effective cases 1, 2, 4 and 6
Description: as §1
Cre was determined by an enzymatic method (sarcosine oxidase[…]POD method).

| Compound | EPO concentration in blood [1] | anemia after discontinuance of administration ([2]; 2 cases in the 7 effective cases) | Hb after further administration ([2]; 2.6 g/day for 1 month, increased from 10.7 g/dl) | judgement of results ([2]; cases 1 to 7) | judgement of results ([2]; cases 8 and 9) | Hb after discontinuance of administration ([2]; other 3 effective cases) | side effect ([3]; 9 administration cases) | side effect ([3]; further administration of 2.6 g/day for 1 month) | EPO concentration in blood relative to rHuEPO preparation treatment ([4]; L-arginine versus conventional rHuEPO treatment) | EPO concentration in blood, at the highest ([4]; after the administration of L-arginine) | Epo productivity (Epo concentration in blood) ([4]; all the effective cases) | Epo productivity (Epo concentration in blood) ([4]; the two ineffective cases) | renal function [5] |
| --- | --- | --- | --- | --- | --- | --- | --- | --- | --- | --- | --- | --- | --- |
| rHuEPO preparation: recombinant erythropoietin preparation, conventional treatment of renal anemia | about 130 mU/mL | – | – | – | – | – | – | – | – | – | – | – | – |
| N=C(N)NCCC[C@H](N)C(=O)O [L-arginine] | – | anemia became worse | 11.5 g/dL | effective | ineffective | Hb was not lowered | No evident side effect | no obvious side effect | less than ⅙ | about 20 mU/mL | increased | lowered | recovery of the renal function was recognized |
